Source: patent US20230265151A1, “GIP/GLP1 CO-AGONIST COMPOUNDS” (priority 2020, published 2023)
Where two headings read alike, the source gives them in different places.

Legend:
hGLP-1R = hGLP-1R (Homo sapiens, UniProt P43220); assay: Functional cAMP formation (HTRF) in HEK-293 clonal cells expressing hGLP-1R, 0.1% bovine casein, without or with 1.0% human serum albumin; type: cell-based; design: expressed in transfected cells; conditions: for Emax: percent of maximal response to GLP-1(7-36)NH2; for EC50: cAMP
In short: (§1)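 Readings of the HTRF 665/620 nm ratio, which falls as cAMP rises, were converted to nM cAMP using a standard curve after 30 min peptide exposure at 37° C.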

[1] = molecular target: T1, human GLP-1 receptor (hGLP-1R) (Homo sapiens, UniProt P43220); assay: [125I]-GLP-1 binding, SPA with membranes of HEK293 cells expressing hGLP-1R
T1 construct: expressed in transfected cells; crude membranes

hGIPR = molecular target: T2, hGIPR (Homo sapiens, UniProt P48546); assay: Functional cAMP formation (HTRF) in HEK-293 clonal cells expressing hGIPR, 0.1% bovine casein, without or with 1.0% human serum albumin; type: cell-based; conditions: for Emax: percent of maximal response to GIP(1-42)NH2; for EC50: cAMP
T2 construct: expressed in transfected cells
T2 sequence (P48546 22-466): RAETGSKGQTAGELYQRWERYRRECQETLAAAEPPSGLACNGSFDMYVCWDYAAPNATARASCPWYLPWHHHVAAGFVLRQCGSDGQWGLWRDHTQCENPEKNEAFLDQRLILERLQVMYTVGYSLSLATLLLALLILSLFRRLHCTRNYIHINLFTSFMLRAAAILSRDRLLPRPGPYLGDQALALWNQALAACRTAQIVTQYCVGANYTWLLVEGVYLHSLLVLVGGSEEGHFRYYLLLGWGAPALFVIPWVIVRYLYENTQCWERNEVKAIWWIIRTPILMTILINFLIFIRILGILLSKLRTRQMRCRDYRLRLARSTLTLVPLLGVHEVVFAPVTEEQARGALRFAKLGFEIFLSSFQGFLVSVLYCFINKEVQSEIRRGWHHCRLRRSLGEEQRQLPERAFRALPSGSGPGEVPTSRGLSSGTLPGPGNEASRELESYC
In short: as §1

hGCGR = molecular target: T3, hGCGR (Homo sapiens, UniProt P47871); assay: Functional cAMP formation (HTRF) in HEK-293 clonal cells expressing hGCGR, 0.1% bovine casein, without or with 1.0% human serum albumin; type: cell-based; conditions: cAMP, 37° C.
T3 construct: expressed in transfected cells
In short: as §1

[2] = 37° C., 0.1% bovine casein (no human serum albumin), geometric mean, read-out: hGLP-1R EC50, nM (SEM, n)
[3] = human GLP-1R, geometric mean (SEM, n), read-out: Binding Affinity Ki, nM (SEM, n) hGLP-1R
[4] = HEK293, cAMP, 37° C., 0.1% bovine casein and 1.0% human serum albumin, read-out: hGIPR Emax, % ± SEM
[5] = 37° C., 0.1% bovine casein (no human serum albumin), geometric mean, read-out: hGIPR EC50, nM (SEM, n)
[6] = 0.1% bovine casein (no human serum albumin), geometric mean, read-out: hGCGR EC50, nM (SEM, n)
[7] = 0.1% bovine casein and 1.0% human serum albumin, geometric mean (SEM, n), read-out: hGCGR EC50, nM (SEM, n)
[8] = HEK293, cAMP, 37° C., 0.1% bovine casein and 1.0% human serum albumin, read-out: hGLP-1R Emax, % ± SEM
[9] = HEK293, cAMP, 37° C., 0.1% bovine casein, arithmetic mean, read-out: hGLP-1R Emax, % ± SEM

hGLP-1R, sequence (P43220 24-463): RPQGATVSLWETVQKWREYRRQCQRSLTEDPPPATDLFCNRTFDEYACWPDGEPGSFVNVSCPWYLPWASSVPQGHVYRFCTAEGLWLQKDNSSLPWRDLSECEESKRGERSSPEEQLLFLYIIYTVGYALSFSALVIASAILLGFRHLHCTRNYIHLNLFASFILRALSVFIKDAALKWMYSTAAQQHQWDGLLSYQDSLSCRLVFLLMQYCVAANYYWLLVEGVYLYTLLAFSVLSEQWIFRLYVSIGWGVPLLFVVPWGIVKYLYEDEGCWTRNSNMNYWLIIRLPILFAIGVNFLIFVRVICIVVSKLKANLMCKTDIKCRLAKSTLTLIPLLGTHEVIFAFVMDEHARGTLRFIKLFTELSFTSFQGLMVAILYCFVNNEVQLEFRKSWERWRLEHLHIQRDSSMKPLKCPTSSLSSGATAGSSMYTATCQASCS
T1 sequence (P43220 24-463): as above
T3 sequence (P47871 26-477): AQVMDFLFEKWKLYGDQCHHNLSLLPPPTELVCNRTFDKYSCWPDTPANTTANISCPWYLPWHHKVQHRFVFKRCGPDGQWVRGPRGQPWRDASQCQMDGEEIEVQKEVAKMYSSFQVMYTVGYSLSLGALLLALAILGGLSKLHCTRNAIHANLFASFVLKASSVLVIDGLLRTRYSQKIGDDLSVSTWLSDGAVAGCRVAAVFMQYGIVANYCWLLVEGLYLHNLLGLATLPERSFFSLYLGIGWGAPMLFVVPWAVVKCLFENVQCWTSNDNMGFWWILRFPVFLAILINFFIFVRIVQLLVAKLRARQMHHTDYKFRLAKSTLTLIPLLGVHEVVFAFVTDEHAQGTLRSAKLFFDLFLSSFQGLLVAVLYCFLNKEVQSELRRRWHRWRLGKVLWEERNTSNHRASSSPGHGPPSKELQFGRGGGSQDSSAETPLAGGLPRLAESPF

| SMILES | Emax (hGLP-1R; HEK293, read-out: hGLP-1R Emax, % ± SEM, cAMP, 37° C., 0.1% bovine casein and 1.0% human serum albumin) | Emax (hGLP-1R; HEK293, read-out: hGLP-1R Emax, % ± SEM, cAMP, 37° C., 0.1% bovine casein, arithmetic mean) | EC50 (hGLP-1R; hGLP-1R EC50, nM (SEM, n), 37° C., 0.1% bovine casein (no human serum albumin), geometric mean) | Ki [1] | Emax (hGIPR; HEK293, read-out: hGIPR Emax, % ± SEM, cAMP, 37° C., 0.1% bovine casein and 1.0% human serum albumin) | EC50 (hGIPR; hGIPR EC50, nM (SEM, n), 37° C., 0.1% bovine casein (no human serum albumin), geometric mean) | EC50 (hGIPR; hGIPR EC50, nM (SEM, n), 37° C., 0.1% bovine casein and 1.0% human serum albumin, geometric mean (SEM, n)) | EC50 (hGCGR; hGCGR EC50, nM (SEM, n), 0.1% bovine casein (no human serum albumin), geometric mean) | EC50 (hGCGR; hGCGR EC50, nM (SEM, n), 0.1% bovine casein and 1.0% human serum albumin, geometric mean (SEM, n)) | EC50 (hGLP-1R; [2]) | EC50 (hGLP-1R; 37° C., 0.1% bovine casein and 1.0% human serum albumin, geometric mean (SEM, n), read-out: hGLP-1R EC50, nM (SEM, n)) | Ki [1, 3] | Emax (hGIPR; [4]) | Emax (hGIPR; HEK293, cAMP, 37° C., 0.1% bovine casein, arithmetic mean, read-out: hGIPR Emax, % ± SEM) | EC50 (hGIPR; [5]) | EC50 (hGCGR; [6]) | EC50 (hGCGR; [7]) | Emax (hGLP-1R; [8]) | Emax (hGLP-1R; [9]) |
| --- | --- | --- | --- | --- | --- | --- | --- | --- | --- | --- | --- | --- | --- | --- | --- | --- | --- | --- | --- |
| CC[C@H](C)[C@H](NC(=O)[C@H](CC(C)C)NC(=O)[C@](C)(Cc1ccc(O)cc1)NC(=O)[C@@H](CCC(=O)O)NC(=O)[C@@H](NC(=O)[C@H](Cc1ccccc1)NC(=O)[C@H](CCC(=O)O)NC(=O)C(C)(C)NC(=O)[C@H](CCC(N)=O)NC(=O)[C@H](C)NC(=O)[C@H](CCCCNC(=O)COCCOCCNC(=O)CC[C@H](NC(=O)CCCCCCCCCOc1ccc(C(=O)O)cc1)C(=O)O)NC(=O)[C@H](CCCN)NC(=O)[C@H](CC(=O)O)NC(=O)[C@H](CC(C)C)NC(=O)[C@](C)(CC(C)C)NC(=O)[C@@H](NC(=O)C(C)(C)NC(=O)[C@H](Cc1ccncc1)NC(=O)[C@H](CC(=O)O)NC(=O)[C@H](CO)NC(=O)[C@@H](NC(=O)[C@](C)(Cc1ccccc1F)NC(=O)[C@@H](NC(=O)CNC(=O)[C@H](CCC(=O)O)NC(=O)C(C)(C)NC(=O)[C@@H](N)Cc1ccc(O)cc1)[C@@H](C)O)[C@@H](C)O)[C@@H](C)CC)[C@@H](C)CC)C(=O)N[C@@H](CCCCNC(=O)COCCOCCNC(=O)CC[C@H](NC(=O)CCCCCCCCCOc1ccc(C(=O)O)cc1)C(=O)O)C(=O)NCC(=O)NCC(=O)N1CCC[C@H]1C(=O)N[C@@H](CO)C(=O)N[C@@H](CO)C(=O)NCC(=O)N[C@@H](C)C(=O)N1CCC[C@H]1C(=O)N1CCC[C@H]1C(=O)N1CCC[C@H]1C(=O)N[C@@H](CO)C(N)=O [Example 361] | 98.8% | 98.2% | 0.58 nM | 1.22 nM | 88.8% | 0.0121 nM | 1.44 nM | > 9950 nM | > 9950 nM | – | – | – | – | – | – | – | – | – | – |
| CCCCCCCCCCCC(=O)N[C@@H](CCC(=O)NCCOCCOCC(=O)NCCOCCOCC(=O)NCCOCCOCC(=O)NCCCC[C@H](NC(=O)[C@H](CCCN)NC(=O)[C@H](CC(=O)O)NC(=O)[C@H](CC(C)C)NC(=O)[C@](C)(CC(C)C)NC(=O)[C@@H](NC(=O)C(C)(C)NC(=O)[C@H](Cc1ccncc1)NC(=O)[C@H](CC(=O)O)NC(=O)[C@H](CO)NC(=O)[C@@H](NC(=O)[C@](C)(Cc1ccccc1F)NC(=O)[C@@H](NC(=O)CNC(=O)[C@H](CCC(=O)O)NC(=O)C(C)(C)NC(=O)[C@@H](N)Cc1ccc(O)cc1)[C@@H](C)O)[C@@H](C)O)[C@@H](C)CC)C(=O)N[C@@H](C)C(=O)N[C@@H](CCC(N)=O)C(=O)NC(C)(C)C(=O)N[C@@H](CCCN)C(=O)N[C@@H](Cc1ccccc1)C(=O)N[C@H](C(=O)N[C@H](CCC(=O)O)C(=O)N[C@@](C)(Cc1ccc(O)cc1)C(=O)N[C@@H](CC(C)C)C(=O)N[C@H](C(=O)N[C@@H](CCCCNC(=O)COCCOCCNC(=O)COCCOCCNC(=O)COCCOCCNC(=O)CC[C@H](NC(=O)CCCCCCCCCCC)C(=O)O)C(=O)NCC(=O)NCC(=O)N1CCC[C@H]1C(=O)N[C@@H](CO)C(=O)N[C@@H](CO)C(=O)NCC(=O)N[C@@H](C)C(=O)N1CCC[C@H]1C(=O)N1CCC[C@H]1C(=O)N1CCC[C@H]1C(=O)N[C@@H](CO)C(N)=O)[C@@H](C)CC)[C@@H](C)CC)C(=O)O [Example 434] | – | – | – | – | – | – | – | – | – | 0.0837 nM | 1.73 nM | 0.15 nM | 97.5% | 98.3% | 0.00704 nM | > 9950 nM | > 9950 nM | – | – |
| CCCCCCCCCCCC(=O)N[C@@H](CCC(=O)NCCOCCOCC(=O)NCCOCCOCC(=O)NCCOCCOCC(=O)NCCCC[C@H](NC(=O)[C@H](CO)NC(=O)[C@@H]1CCCN1C(=O)[C@@H]1CCCN1C(=O)[C@@H]1CCCN1C(=O)[C@H](C)NC(=O)CNC(=O)[C@H](CO)NC(=O)[C@H](CO)NC(=O)[C@@H]1CCCN1C(=O)CNC(=O)CNC(=O)[C@H](CCC(=O)O)NC(=O)[C@@H](NC(=O)[C@H](CC(C)C)NC(=O)[C@](C)(Cc1ccc(O)cc1)NC(=O)[C@@H](CCC(=O)O)NC(=O)[C@@H](NC(=O)[C@H](Cc1ccccc1)NC(=O)[C@H](CCCN)NC(=O)C(C)(C)NC(=O)[C@H](CCC(N)=O)NC(=O)[C@H](C)NC(=O)[C@H](CCCCNC(=O)COCCOCCNC(=O)COCCOCCNC(=O)COCCOCCNC(=O)CC[C@H](NC(=O)CCCCCCCCCCC)C(=O)O)NC(=O)[C@H](CCCN)NC(=O)[C@H](CC(=O)O)NC(=O)[C@H](CC(C)C)NC(=O)[C@](C)(CC(C)C)NC(=O)[C@@H](NC(=O)C(C)(C)NC(=O)[C@H](Cc1ccncc1)NC(=O)[C@H](CC(=O)O)NC(=O)[C@H](CO)NC(=O)[C@@H](NC(=O)[C@](C)(Cc1ccccc1F)NC(=O)[C@@H](NC(=O)CNC(=O)[C@H](CCC(=O)O)NC(=O)C(C)(C)NC(=O)[C@@H](N)Cc1ccc(O)cc1)[C@@H](C)O)[C@@H](C)O)[C@@H](C)CC)[C@@H](C)CC)[C@@H](C)CC)C(N)=O)C(=O)O [Example 435] | – | – | – | – | – | – | – | – | – | 0.0527 nM | – | 0.122 nM | 98.7% | – | 0.00517 nM | > 9950 nM | > 9950 nM | 97.8% | 111% |
| CCCCCCCCCCCC(=O)N[C@@H](CCC(=O)NCCOCCOCC(=O)NCCOCCOCC(=O)NCCOCCOCC(=O)NCCCC[C@H](NC(=O)[C@H](CCCN)NC(=O)[C@H](CC(=O)O)NC(=O)[C@H](CC(C)C)NC(=O)[C@](C)(CC(C)C)NC(=O)[C@@H](NC(=O)C(C)(C)NC(=O)[C@H](CCCCNC(=O)COCCOCCNC(=O)COCCOCCNC(=O)COCCOCCNC(=O)CC[C@H](NC(=O)CCCCCCCCCCC)C(=O)O)NC(=O)[C@H](CC(=O)O)NC(=O)[C@H](CO)NC(=O)[C@@H](NC(=O)[C@](C)(Cc1ccccc1F)NC(=O)[C@@H](NC(=O)CNC(=O)[C@H](CCC(=O)O)NC(=O)C(C)(C)NC(=O)[C@@H](N)Cc1ccc(O)cc1)[C@@H](C)O)[C@@H](C)O)[C@@H](C)CC)C(=O)N[C@@H](C)C(=O)N[C@@H](CCC(N)=O)C(=O)NC(C)(C)C(=O)N[C@@H](CCC(=O)O)C(=O)N[C@@](C)(Cc1ccccc1)C(=O)N[C@H](C(=O)N[C@H](CCC(=O)O)C(=O)N[C@@](C)(Cc1ccc(O)cc1)C(=O)N[C@@H](CC(C)C)C(=O)N[C@H](C(=O)N[C@@H](CCC(=O)O)C(=O)NCC(=O)NCC(=O)N1CCC[C@H]1C(=O)N[C@@H](CO)C(=O)N[C@@H](CO)C(=O)NCC(=O)N[C@@H](C)C(=O)N1CCC[C@H]1C(=O)N1CCC[C@H]1C(=O)N1CCC[C@H]1C(=O)N[C@@H](CO)C(N)=O)[C@@H](C)CC)[C@@H](C)CC)C(=O)O [Example 436] | – | – | – | – | – | – | – | – | – | 0.102 nM | – | 0.412 nM | 96% | – | 0.00714 nM | > 9950 nM | > 9950 nM | 100% | 98.9% |
